Experimental data taken from PMC11062894, “Protein-based bandpass filters for controlling cellular signaling with chemical inputs” (Nature Chemical Biology, 2023).
“And” between values parts separate entries of the source, which are not always exact repeats. Identical values can stand only once.

System: GEMS receptors with CBPA11 (BclXL–LD3 and BclXLhigh variants), STAT3-driven SEAP in HEK293T cells
Assay: GEMS SEAP reporter assay, CBPA11 (BclXLhigh, LD3-v and BclXL-v variants) with A-1155463
Type: cell-based
Parameters: key to Raw data (SEAP) / SEAP, replicate values / Raw data of Figure 5b / Raw data Figure 5e / Raw data of Independent repeat of CBPA11-v1 vs CBPA11-v1-LD3v3 / Raw data of Independent repeat of CBPA11-v3 vs CBPA11-v3-LD3v3 / Raw data of Figure 5b, CBPA11-v1-LD3v3 (SEAP reporter raw value, single replicate) / Raw data of Figure 5b, CBPA11-v1 (SEAP reporter raw value, single replicate): SEAP activity in U/L in culture supernatant
Text: To rationally design a CBP responding to a chemical input, we used BclXL as the druglow receptor, LD3 as the designed binder and a designed BclXL variant as the drughigh receptor (referred to as BclXLhigh) to construct a CBP responsive to BclXL inhibitors (Fig. 4a). To design BclXLhigh, we used a multistate design computational protocol described elsewhere[26] […] Thus, BclXLhigh-v(1–3) were chosen as the functional drughigh receptors, resulting in three A-1155463-controlled CBPs (referred to as CBPA11-v(1–3)) (Fig. 4c–e).
HEK293T cells were seeded in a 96-well plate 24 h before transfection. The transfection mix in each well consisted of 3 ng of constitutive human CMV promoter driven mammalian STAT3 expression vector (PhCMV-STAT3-pA), 30 ng of STAT3-induced reporter expression (OStat3-PhCMVmin-SEAP-pA) and 50 ng of expression vectors for each GEMS receptor chain (PSV40-IgK-(drughigh receptor)-EpoRm-IL-6RBm-pA and PSV40-IgK-(druglow receptor-GGGGSX3-LD3)-EpoRm-IL-6RBm-pA). For the specific drughigh receptor and druglow receptor used in the different cellular assays, they are indicated as wild type or with mutations. Then, plasmid DNA was mixed with 50 μl opti-MEM (Thermo Fisher) and 600 ng of polyethyleneimine (Polysciences, catalog no. 24765-1). For drug treatment experiments, drugs were added 12 h post-transfection and incubated with cells for 24 h before the SEAP reporter detection assay.
SEAP activity (U l^−1) in cell culture supernatants was quantified by kinetic measurements at 405 nm (1 minute per measurement for 30 cycles) of absorbance increase due to phosphatase-mediated hydrolysis of para-nitrophenyl phosphate (pNPP).
Binding affinities of SPR drug competition assays were calculated using three-parameter nonlinear regression in GraphPad Prism (v.8.3.0). Representative data of cell assays are presented as individual values and mean values (bars). n = 3 refers to biological replicates. All IC50 or EC50 values of cell assays reported were calculated using four-parameter nonlinear regression ± s.d. Bandpass features of cutoff concentrations and Bandwidth90% were estimated based on the curve fitted using bell-shaped curve nonlinear regression in GraphPad Prism (v.8.3.0). […]
Supplementary Figure 4: Design, screening and validation of BclXLhigh variants. a) Screening of BclXLhigh variants in the GEMS platform. […]
Dissociation constant measurement of BclXLhigh-v(1-3) and LD3. Equilibrium curves are fitted using […]
BclXLhigh-v1 (purple), BclXLhigh-v2 (blue), […]
a) Bcl2high-based bandpass filter designs were developed and to respond to different concentrations of […]
corresponding inhibitor. c) Screening of Bcl2high-based bandpass filter variants in the GEMS platform.
The designed binder LD3 was fused to the druglow-receptor (PSV40-IgK-Bcl2-LD3-EpoRm-IL-6RBm-pA) in one EpoR chain and Bcl2high variants with the insensitive Bcl2 (iBcl2) as control in the other EpoR chain (PSV40-IgK-Bcl2high-EpoRm-IL-6RBm-pA). HEK293T cells were transfected with indicated […]
the mean of six biological replicates ± s.d., overlaid with a scatter dot plot of the original data points.
(1 picture or pasted object on this page, not shown here)
Supplementary Figure 6: Binding affinities and drug resistances of Bcl2high-v(2,4,5) assessed by […]
a) Measurement of dissociation constants for Bcl2high-v(2,4,5) and LD3 interactions. Equilibrium curves […]
Bcl2high-v(2,4,5) measured by SPR. 5 μM of Bcl2 or indicated variants were mixed with 10 μM of […]
Bcl2high-v2 (red), Bcl2high-v4
Supplementary Figure 7: Screening of LD3 variants in CBPA11-v(1-3) and raw data of CBPA11-v(1,3) with LD3-v3 variant. a-c) Screening of LD3 and LD3-v(1-3) variants in complex with BclXL for more sensitive CBPA11-v1 (a), CBPA11-v2 (b), CBPA11-v3 (c) in the GEMS platform. The LD3 variants replaced the role of LD3 (PSV40-IgK-BclXL-LD3-v(1-3)-EpoRm-IL-6RBm-pA) in one EpoR chain and BclXLhigh-v(1-3) in the other EpoR chain (PSV40-IgK-BclXLhigh-V(1-3)-EpoRm-IL-6RBm-pA). HEK293T cells were transfected with […]

[1] = CBPA11-v3-BclXLv2, A-1155463 10000 nM
[2] = CBPA11-v3-LD3v3, A-1155463 1 nM
[3] = CBPA11-v3-LD3v3, A-1155463 3.18 nM
[4] = CBPA11-v3-LD3v3, A-1155463 10 nM
[5] = CBPA11-v3-LD3v3, A-1155463 31.8 nM
[6] = CBPA11-v3-LD3v3, A-1155463 100 nM
[7] = CBPA11-v3-LD3v3, A-1155463 318 nM
[8] = CBPA11-v3-LD3v3, A-1155463 1000 nM
[9] = CBPA11-v3-LD3v3, A-1155463 3180 nM

SMILES: CN(C)CC#Cc1ccc(OCCCc2sc(N3CCc4cccc(C(=O)Nc5nc6ccccc6s5)c4C3)nc2C(=O)O)c(F)c1 [A-1155463]
- Normalized data Figure 5e (CBPA11-v3, A-1155463 1000 nM): 81.2661 and 84.4942 and 85.1885
- Normalized data of Figure 5b (CBPA11-v3, A-1155463 1000 nM): 77.1257 and 88.7382 and 83.2133
- Raw data of Figure 5b (CBPA11-v3, A-1155463 1000 nM): 414.242 and 467.209 and 437.572
- Raw data of Independent repeat of CBPA11-v3 vs CBPA11-v3-LD3v3 (CBPA11-v3, A-1155463 1000 nM): 429.812 and 444.52 and 449.13
- Raw data of Independent repeat of CBPA11-v3 vs CBPA11-v3-LD3v3 (CBPA11-v3, A-1155463 3160 nM): 188.374 and 250.833 and 293.834
- Normalized data Figure 5e (CBPA11-v3, A-1155463 3180 nM): 35.6165 and 47.6783 and 55.7329
- Normalized data of Figure 5b (CBPA11-v3, A-1155463 3180 nM): 69.9852 and 73.5971 and 71.687
- Raw data Figure 5e (CBPA11-v3, A-1155463 3180 nM): 250.833 and 293.834
- Raw data of Figure 5b (CBPA11-v3, A-1155463 3180 nM): 375.891 and 387.491 and 376.961
- Normalized data of Figure 5b (CBPA11-v3, A-1155463 10000 nM): 33.3676 and 35.0593 and 32.1412
- Raw data Figure 5e (CBPA11-v3, A-1155463 10000 nM): 69.4522 and 75.5808 and 84.1281
- Raw data of Figure 5b (CBPA11-v3, A-1155463 10000 nM): 179.218 and 184.588 and 169.013
- Normalized data Figure 5e (CBPA11-v3-BclXLv2, A-1155463 1 nM): 21.2301 and 20.9054 and 25.1683
- Normalized data Figure 5e (CBPA11-v3-BclXLv2, A-1155463 3.18 nM): 36.7849 and 34.3141 and 39.7967
- Normalized data Figure 5e (CBPA11-v3-BclXLv2, A-1155463 10 nM): 81.6336 and 75.0518 and 82.9089
- Normalized data Figure 5e (CBPA11-v3-BclXLv2, A-1155463 31.8 nM): 90.6446 and 90.5045 and 89.528
- Normalized data Figure 5e (CBPA11-v3-BclXLv2, A-1155463 100 nM): 100
- Normalized data Figure 5e (CBPA11-v3-BclXLv2, A-1155463 318 nM): 94.0748 and 83.4986 and 97.6461
- Normalized data Figure 5e (CBPA11-v3-BclXLv2, A-1155463 1000 nM): 82.1634 and 70.2925 and 84.8015
- Normalized data Figure 5e (CBPA11-v3-BclXLv2, A-1155463 3180 nM): 56.5379 and 50.558 and 54.1989
- Normalized data Figure 5e [1]: 20.2076 and 19.0615 and 22.8054
- Raw data Figure 5e [1]: 80.3813 and 74.5359 and 94.7265
- Raw data of Independent repeat of CBPA11-v3 vs CBPA11-v3-LD3v3 (CBPA11-v3-LD3v3, A-1155463 0.01 nM): 22.6826 and 23.3953 and 23.1684
- Normalized data of Figure 5b [2]: 18.3263 and 15.7809 and 17.6916
- Raw data of Figure 5b [2]: 15.5654 and 14.7861 and 18.9282
- Raw data of Independent repeat of CBPA11-v3 vs CBPA11-v3-LD3v3 [2]: 39.675 and 38.1934 and 39.412
- Raw data of Independent repeat of CBPA11-v3 vs CBPA11-v3-LD3v3 (CBPA11-v3-LD3v3, A-1155463 3.16 nM): 41.6393 and 41.4109 and 44.6799
- Normalized data of Figure 5b [3]: 21.7199 and 21.0211 and 18.3728
- Raw data of Figure 5b [3]: 18.4478 and 19.6959 and 19.6571
- Normalized data of Figure 5b [4]: 42.8939 and 42.6676 and 37.1804
- Raw data of Figure 5b [4]: 36.4319 and 39.9778 and 39.7793
- Raw data of Independent repeat of CBPA11-v3 vs CBPA11-v3-LD3v3 [4]: 121.488 and 115.434 and 117.733
- Raw data of Independent repeat of CBPA11-v3 vs CBPA11-v3-LD3v3 (CBPA11-v3-LD3v3, A-1155463 31.6 nM): 175.057 and 186.814 and 198.727
- Normalized data of Figure 5b [5]: 100 and 85.1231 and 93.5368
- Raw data of Figure 5b [5]: 84.9348 and 79.7569 and 100.075
- Normalized data of Figure 5b [6]: 98.4645 and 100
- Raw data of Figure 5b [6]: 83.6306
- Raw data of Independent repeat of CBPA11-v3 vs CBPA11-v3-LD3v3 [6]: 212.624 and 240.137 and 273.777
- Raw data of Independent repeat of CBPA11-v3 vs CBPA11-v3-LD3v3 (CBPA11-v3-LD3v3, A-1155463 316 nM): 197.006 and 197.385 and 185.58
- Normalized data of Figure 5b [7]: 66.0363 and 74.9346 and 74.5506
- Raw data of Figure 5b [7]: 56.0878 and 70.2108 and 79.7618
- Normalized data of Figure 5b [8]: 44.7107 and 39.495 and 38.775
- Raw data of Figure 5b [8]: 37.975 and 37.0053 and 41.4854
- Raw data of Independent repeat of CBPA11-v3 vs CBPA11-v3-LD3v3 [8]: 89.9783 and 83.2851 and 69.3694
- Raw data of Independent repeat of CBPA11-v3 vs CBPA11-v3-LD3v3 (CBPA11-v3-LD3v3, A-1155463 3160 nM): 42.2434 and 33.2038 and 38.7983
- Normalized data of Figure 5b [9]: 16.4914 and 15.345 and 15.1706
- Raw data of Figure 5b [9]: 14.007 and 14.3777 and 16.2311
